Values quoted from earlier work, collected in patent US6399592B1, “Bishphosphonate/estrogen synergistic therapy for treating and preventing bone loss” (Merck & Co., Inc., priority 1992, dated 2002).

How the values were obtained:
[1] = tested on: bone mineralization; conditions: rats; long term
[2] = tested on: bone loss in ovaricetomized rats; conditions: in combination with estrogen

Row | SMILES | effects on bone mineralization [1] | effect on bone loss [2]
1 | CC(O)(P(=O)([O-])O)P(=O)([O-])O.[Na+].[Na+] [etidronate, (1-hydroxyethylidene)bisphosphonic acid, disodium salt] | long term adverse effects on bone mineralization | –
2 | O=P([O-])(O)C(O)(Cc1cccnc1)P(=O)(O)O.[Na+] [risendronate, sodium trihydrogen [1-hydroxy-2-(3-pyridinyl)ethylidene]bisphosphonate] | – | positive effect on bone loss
